Measured values taken from ChEMBL document CHEMBL4622980, “Peptide Inhibitors of Bacterial Protein Synthesis with Broad Spectrum and SbmA-Independent Bactericidal Activity against Clinical Pathogens” (J Med Chem, 2020).
≈ marks a conversion by molar mass, not a printed value. Calls of active or inactive are those of the source. The calls are words filed in the database; no cut-off is given here. Non-standard residues stand in square brackets, D forms with d. Residues, ends and D or L forms follow the SMILES beside them. ξ: configuration not given here. ξP = O=C(O)C1CCCN1

Columns and labels:
Escherichia coli [1] = test: Antibacterial activity against Escherichia coli BW25113 assessed as prevention visible bacterial growth incubated for 18 hrs; type: functional; details: BW25113, 18 h
Escherichia coli [2] = test: Bactericidal activity against Escherichia coli BW25113 assessed as prevention visible bacterial growth incubated for 18 hrs; type: functional; details: BW25113, 18 h
Escherichia coli [3] = test: Antibacterial activity against Escherichia coli clinical isolates assessed as prevention visible bacterial growth incubated for 18 hrs; type: functional
Escherichia coli [4] = test: Antibacterial activity against Escherichia coli ATCC 25922 assessed as prevention visible bacterial growth incubated for 18 hrs; type: functional; details: ATCC 25922, 18 h
Pseudomonas aeruginosa [5] = test: Bactericidal activity against Pseudomonas aeruginosa ATCC 27853 assessed as prevention visible bacterial growth incubated for 18 hrs; type: functional; details: ATCC 27853, 18 h
Klebsiella pneumoniae [6] = test: Antibacterial activity against Klebsiella pneumoniae 700603 assessed as prevention visible bacterial growth incubated for 18 hrs; type: functional; details: Klebsiella pneumoniae, 700603, 18 h
Klebsiella pneumoniae [7] = test: Bactericidal activity against Klebsiella pneumoniae 700603 assessed as prevention visible bacterial growth incubated for 18 hrs; type: functional; details: Klebsiella pneumoniae, 700603, 18 h
[8] = Cytotoxicity in human MEC1 cells assessed as reduction in cell viability incubated for 20 hrs by MTT assay; type: cell-based
Escherichia coli [9] = test: Induction of membrane permeabilization in Escherichia coli BW25113 at 1 to 2 uM incubated for 30 mins by ONPG/beta-galactosidase assay; type: functional, organism-based
Staphylococcus aureus [10] = test: Antibacterial activity against Staphylococcus aureus ATCC 25923 assessed as prevention visible bacterial growth incubated for 18 hrs; type: functional; details: ATCC 25923, 18 h
Escherichia coli [11] = test: Bactericidal activity against Escherichia coli BW25113 expressing delta sbmA mutation assessed as prevention visible bacterial growth incubated for 18 hrs; type: functional; details: BW25113, 18 h
Acinetobacter baumannii [12] = test: Bactericidal activity against Acinetobacter baumannii ATCC 19606 assessed as prevention visible bacterial growth incubated for 18 hrs; type: functional; details: ATCC 19606 = CIP 70.34 = JCM 6841, 18 h
Pseudomonas aeruginosa [13] = test: Antibacterial activity against Pseudomonas aeruginosa ATCC 27853 assessed as prevention visible bacterial growth incubated for 18 hrs; type: functional; details: ATCC 27853, 18 h
Staphylococcus aureus [14] = test: Bactericidal activity against Staphylococcus aureus ATCC 25923 assessed as prevention visible bacterial growth incubated for 18 hrs; type: functional; details: ATCC 25923, 18 h
Escherichia coli [15] = test: Bactericidal activity against Escherichia coli ATCC 25922 assessed as prevention visible bacterial growth incubated for 18 hrs; type: functional; details: ATCC 25922, 18 h
Acinetobacter baumannii [16] = test: Antibacterial activity against Acinetobacter baumannii ATCC 19606 assessed as prevention visible bacterial growth incubated for 18 hrs; type: functional; details: ATCC 19606 = CIP 70.34 = JCM 6841, 18 h
Escherichia coli [17] = test: Antibacterial activity against Escherichia coli ATCC 25922 assessed as prevention visible bacterial growth incubated for 18 hrs in presence of 10% (v/v) human serum in full MH medium; type: functional; details: ATCC 25922, 18 h
Escherichia coli [18] = test: Antibacterial activity against Escherichia coli BW25113 expressing delta sbmA mutation assessed as prevention visible bacterial growth incubated for 18 hrs; type: functional; details: BW25113, 18 h
Escherichia coli [19] = test: Inhibition of in-vitro transcription/translation in Escherichia coli lysates at 1 uM incubated for 1 hr by luciferase reporter gene assay relative to control; type: functional

MIC99 (Escherichia coli [1]) [µM] | Compound | other results
4 | H-FRIRPRPPRLPRPRPR-OH | 
64 | H-IRPLPPRRPRRPRRRP-OH | 
64 | H-REIRPRPPRLPRPRPR-OH | 
16 | H-RFIRPRPPRLPRPRPR-OH | 
16 | H-RGIRPRPPRLPRPRPR-OH | 
16 | H-RRIFPRPPRLPRPRPR-OH | 
8 | H-RRIRGRPPRLPRPRPR-OH | 
> 64 | H-RRIRPEPPRLPRPRPR-OH | 
16 | H-RRIRPFPPRLPRPRPR-OH | 
32 | H-RRIRPGPPRLPRPRPR-OH | 
16 | H-RRIRPRAPRLPRPRPR-OH | 
32 | H-RRIRPREPRLPRPRPR-OH | 
16 | H-RRIRPRGPRLPRPRPR-OH | 
64 | H-RRIRPRPPALPRPRPR-OH | 
> 64 | H-RRIRPRPPREPRPRPR-OH | 
32 | H-RRIRPRPPRFPRPRPR-OH | 
32 | H-RRIRPRPPRLARPRPR-OH | 
64 | H-RRIRPRPPRLERPRPR-OH | 
32 | H-RRIRPRPPRLGRPRPR-OH | 
32 | H-RRIRPRPPRLPAPRPR-OH | 
> 64 | H-RRIRPRPPRLPEPRPR-OH | 
32 | H-RRIRPRPPRLPGPRPR-OH | 

MIC99 (Escherichia coli [1]) [µM] | Compound | other results
64 | H-RRIRPRPPRLPRERPR-OH | 
16 | H-RRIRPRPPRLPRPRPS-OH | 
16 | H-RRIRPRPPRLPRPRSR-OH | 
32 | H-RRIRPRPPRLPRPSPR-OH | 
16 | H-RRIRPRPPRLPRSRPR-OH | 
2 | H-RRIRPRPPRLPRWRPR-OH | 
8 | H-RRIRPRPPRLPWPRPR-OH | 
16 | H-RRIRPRPPRLRRPRPR-OH | 
16 | H-RRIRPRPPRWPRPRPR-OH | 
4 | H-RRIRPRPPWLPRPRPR-OH | 
16 | H-RRIRPRPRRLPRPRPR-OH | 
8 | H-RRIRPRRPRLPRPRPR-OH | 
16 | H-RRIRPRSPRLPRPRPR-OH | 
32 | H-RRIRPSPPRLPRPRPR-OH | 
8 | H-RRIRPWPPRLPRPRPR-OH | 
8 | H-RRIRRRPPRLPRPRPR-OH | 
4 | H-RRIRWRPPRLPRPRPR-OH | 
32 | H-RRISPRPPRLPRPRPR-OH | 
8 | H-RRIWPRPPRLPRPRPR-OH | 
4 | H-RRWRPRPPRLPRPRPR-OH | 
16 | H-RSIRPRPPRLPRPRPR-OH | 
16 | H-SRIRPRPPRLPRPRPR-OH | 

The remaining lines, values behind:

Compound | MIC99 (Escherichia coli [1]) [µM] | other results
CC(C)C[C@H](NC(=O)[C@H](CCCNC(=N)N)NC(=O)[C@@H]1CCCN1C(=O)[C@@H]1CCCN1C(=O)[C@H](CCCNC(=N)N)NC(=O)[C@@H]1CCCN1C(=O)[C@H](CCCNC(=N)N)NC(=O)C1CCCN1C(=O)[C@H](CCCNC(=N)N)NC(=O)[C@@H](N)CCCNC(=N)N)C(=O)N1CCC[C@H]1C(=O)N[C@@H](CCCNC(=N)N)C(=O)N1CCC[C@H]1C(=O)N[C@@H](CCCNC(=N)N)C(=O)N1CCC[C@H]1C(=O)N[C@@H](CCCNC(=N)N)C(=O)O (stereo not given in full) (H-RR[ξP]RPRPPRLPRPRPR-OH) | 16 (≈ 33 µg/mL) | 
CC[C@H](C)[C@H](NC(=O)C1CCCN1C(=O)[C@@H](N)CCCNC(=N)N)C(=O)N[C@@H](CCCNC(=N)N)C(=O)N1CCC[C@H]1C(=O)N[C@@H](CCCNC(=N)N)C(=O)N1CCC[C@H]1C(=O)N1CCC[C@H]1C(=O)N[C@@H](CCCNC(=N)N)C(=O)N[C@@H](CC(C)C)C(=O)N1CCC[C@H]1C(=O)N[C@@H](CCCNC(=N)N)C(=O)N1CCC[C@H]1C(=O)N[C@@H](CCCNC(=N)N)C(=O)N1CCC[C@H]1C(=O)N[C@@H](CCCNC(=N)N)C(=O)O (stereo not given in full) (H-R[ξP]IRPRPPRLPRPRPR-OH) | 64 (≈ 129 µg/mL) | 
H-ARIRPRPPRLPRPRPR-OH | 4 | 
H-ERIRPRPPRLPRPRPR-OH | 64 | 
H-GRIRPRPPRLPRPRPR-OH | 8 | 
H-PRIRPRPPRLPRPRPR-OH | 8 | 
H-RAIRPRPPRLPRPRPR-OH | 16 | 
H-RRARPRPPRLPRPRPR-OH | 16 | 
H-RRERPRPPRLPRPRPR-OH | 64 | 
H-RRFRPRPPRLPRPRPR-OH | 16 | 
H-RRGRPRPPRLPRPRPR-OH | 16 | 
H-RRIAPRPPRLPRPRPR-OH | 16 | 
H-RRIEPRPPRLPRPRPR-OH | > 64 | 
H-RRIGPRPPRLPRPRPR-OH | 16 | 
H-RRIPPRPPRLPRPRPR-OH | 16 | 
H-RRIRARPPRLPRPRPR-OH | 8 | 
H-RRIRERPPRLPRPRPR-OH | 32 | 
H-RRIRFRPPRLPRPRPR-OH | 8 | 
H-RRIRPAPPRLPRPRPR-OH | 16 | 
H-RRIRPPPPRLPRPRPR-OH | 32 | 
H-RRIRPRFPRLPRPRPR-OH | 8 | 
H-RRIRPRPARLPRPRPR-OH | 16 | 
H-RRIRPRPERLPRPRPR-OH | 64 | 
H-RRIRPRPFRLPRPRPR-OH | 16 | 

Compound | MIC99 (Escherichia coli [1]) [µM] | other results
H-RRIRPRPGRLPRPRPR-OH | 16 | 
H-RRIRPRPPELPRPRPR-OH | > 64 | 
H-RRIRPRPPFLPRPRPR-OH | 16 | 
H-RRIRPRPPGLPRPRPR-OH | 64 | 
H-RRIRPRPPPLPRPRPR-OH | 16 | 
H-RRIRPRPPRAPRPRPR-OH | 64 | 
H-RRIRPRPPRGPRPRPR-OH | 64 | 
H-RRIRPRPPRLFRPRPR-OH | 32 | 
H-RRIRPRPPRLPFPRPR-OH | 16 | 
H-RRIRPRPPRLPPPRPR-OH | 32 | 
H-RRIRPRPPRLPRARPR-OH | 16 | 
H-RRIRPRPPRLPRFRPR-OH | 8 | 
H-RRIRPRPPRLPRGRPR-OH | 16 | 
H-RRIRPRPPRLPRPAPR-OH | 32 | 
H-RRIRPRPPRLPRPEPR-OH | 64 | 
H-RRIRPRPPRLPRPFPR-OH | 8 | 
H-RRIRPRPPRLPRPGPR-OH | 32 | 
H-RRIRPRPPRLPRPPPR-OH | 32 | 
H-RRIRPRPPRLPRPRAR-OH | 8 | 
H-RRIRPRPPRLPRPRER-OH | 32 | 
H-RRIRPRPPRLPRPRFR-OH | 8 | 
H-RRIRPRPPRLPRPRGR-OH | 16 | 
H-RRIRPRPPRLPRPRPA-OH | 16 | 
H-RRIRPRPPRLPRPRPE-OH | 64 | 

Compound | MIC99 (Escherichia coli [1]) [µM] | other results
H-RRIRPRPPRLPRPRPF-OH | 8 | 
H-RRIRPRPPRLPRPRPG-OH | 16 | 
H-RRIRPRPPRLPRPRPP-OH | 32 | 
H-RRIRPRPPRLPRPRPR-OH | 2 to 8 | MBC (Escherichia coli [2]): 4 µM; MIC99 (Escherichia coli [3]): > 1 µM; MIC99 (Escherichia coli [4]): 1 µM; MBC (Pseudomonas aeruginosa [5]): > 64 µM; MIC99 (Klebsiella pneumoniae [6]): 4 µM; MBC (Klebsiella pneumoniae [7]): 64 µM; CC50 at 20 h [8]: > 64 µM; Activity (Escherichia coli [9]): inactive; MIC99 (Staphylococcus aureus [10]): > 64 µM; MBC (Escherichia coli [11]): 64 µM; MBC (Acinetobacter baumannii [12]): > 64 µM; MIC99 (Pseudomonas aeruginosa [13]): > 64 µM; MBC (Staphylococcus aureus [14]): > 64 µM; MBC (Escherichia coli [15]): 2 µM; MIC99 (Acinetobacter baumannii [16]): 32 µM; MIC (Escherichia coli [17]): 1 µM; MIC99 (Escherichia coli [18]): 16 µM
H-RRIRPRPPRLPRPRPW-OH | 8 | 
H-RRIRPRPPRLPRPRRR-OH | 16 | 
H-RRIRPRPPRLPRPWPR-OH | 4 | 
H-RRIRPRPPRLPRRRPR-OH | 8 | 
H-RRIRPRPPRLPSPRPR-OH | 16 | 
H-RRIRPRPPRLSRPRPR-OH | 32 | 
H-RRIRPRPPRLWRPRPR-OH | 8 | 
H-RRIRPRPPRPPRPRPR-OH | 64 | 
H-RRIRPRPPRRPRPRPR-OH | 32 | 
H-RRIRPRPPRSPRPRPR-OH | 32 | 
H-RRIRPRPPSLPRPRPR-OH | 32 | 
H-RRIRPRPSRLPRPRPR-OH | 16 | 
H-RRIRPRPWRLPRPRPR-OH | 4 | 
H-RRIRPRWPRLPRPRPR-OH | 4 | 
H-RRIRSRPPRLPRPRPR-OH | 16 | 
H-RRRRPRPPRLPRPRPR-OH | 8 | 
H-RRSRPRPPRLPRPRPR-OH | 16 | 
H-RWIRPRPPRLPRPRPR-OH | 8 | 
H-WRIRPRPPRLPRWRPR-OH | 2 | MBC (Escherichia coli [2]): 4 µM; MIC99 (Escherichia coli [3]): > 1 µM; inhibition (Escherichia coli [19]): Active; MIC99 (Escherichia coli [4]): 1.5 µM; MBC (Pseudomonas aeruginosa [5]): > 64 µM; MIC99 (Klebsiella pneumoniae [6]): 8 µM; MBC (Klebsiella pneumoniae [7]): 32 µM; CC50 at 20 h [8]: > 64 µM; Activity (Escherichia coli [9]): inactive; MIC99 (Staphylococcus aureus [10]): > 64 µM; MBC (Escherichia coli [11]): 32 µM; MBC (Acinetobacter baumannii [12]): 64 µM; MIC99 (Pseudomonas aeruginosa [13]): > 64 µM; MBC (Staphylococcus aureus [14]): > 64 µM; MBC (Escherichia coli [15]): 2 µM; MIC99 (Acinetobacter baumannii [16]): 32 µM; MIC (Escherichia coli [17]): 2 µM; MIC99 (Escherichia coli [18]): 16 µM
